Measurements: patent publication US7579322B2, “Compositions and methods for promoting myocardial and peripheral angiogenesis” (Zimmer Orthobiologics, Inc., priority 2001, dated 2009)
Ends that are not written are not given here.

Legend:
[1] = tested on: human aortic endothelial cells; test: In vitro cell migration assay (chemotaxis tray / modified Boyden chamber), endothelial cells; format: cell-based; settings: for migration of human aortic endothelial cells: compared to negative control / scramble peptides, 4 hours incubation
Method: (§1) The ability of IGD-motif peptides according to the present invention to promote cell migration of human endothelial and smooth muscle cells, which are processes characteristic of angiogenesis, was evaluated by conducting cell migration assays for the peptides of SEQ ID NOS 1 and 2, and a scramble of the IGD peptide characterized by the DIG sequence. A capped version of the scramble characterized by the GGDIGGG (SEQ ID NO:7) sequence was also tested.
(§2) Chemotaxis trays (Chemo Tx disposable migration chamber, 6 mm diameter, 300 μl/well, 96 wells with 8 μm filter membranes from Neuro Probe, Inc., Gaithersville, Md.) for evaluating cell migration of the peptides were sterilized by placing the trays under UV light overnight. Further operations with the membrane were carried out under aseptic conditions. The filter membranes were loaded with gelatin to provide a suitable environment for the cells testing by soaking in 3% acetic acid overnight and then for 2 hours in 0.1 mg/ml gelatin. They were then rinsed in sterile water and allowed to air dry. Such membranes may be stored at room temperature for up to 1 month.
The cells to be used in the assay (endothelial cells or smooth muscle cells) were starved for 24 hours before use in appropriate culture media containing 0.1% Fetal Bovine Serum (“FBS”) instead of the customary 10% FBS serum, and 1× penicillin-streptomycin antibiotics. The wells of the 96 well chamber of the chemotaxis unit were filled with media containing 0.1% serum alone or 0.1% serum and the test material (control or chemoattractant respectively). The filter membrane was positioned over the plate, aligning the holes in the corners of the frame with the four pins on the microplate, and the membrane was snapped into place making sure that the media in the wells touched the membrane completely. Fifty (50) μl of cell suspension in the starvation-media, at a concentration of 4×10^4 viable cells per charge were plated onto each site (over each well). The plate was incubated at 37° C. in an atmosphere of 5% CO2 for 4 hours.
After incubation the lid was removed and with the filter still in place the cells on the upper surface of the membrane were gently wiped off and washed by carefully flushing the top surface of the filter with media by holding the plate with filter at a 45° angle over a container. The cells on the undersurface of the membrane were then fixed in methanol (˜20 minutes) and stain with Diff-Quik Staining Set. The membrane was then allowed to dry and the number of cells that migrated through the filter pores was determined by counting the number in a field under a light microscope.

[2] = tested on: human smooth muscle cells; test: In vitro cell migration assay (chemotaxis tray), smooth muscle cells; format: cell-based; settings: compared to controls; 4 hours incubation
Method: as §1, §2
The cells to be used in the assay (endothelial cells or smooth muscle cells) were starved for 24 hours before use in appropriate culture media containing 0.1% Fetal Bovine Serum (“FBS”) instead of the customary 10% FBS serum, and 1× penicillin-streptomycin antibiotics. The wells of the 96 well chamber of the chemotaxis unit were filled with media containing 0.1% serum alone or 0.1% serum and the test material (control or chemoattractant respectively). […]
After incubation the lid was removed and with the filter still in place the cells on the upper surface of the membrane were gently wiped off and washed by carefully flushing the top surface of the filter with media by holding the plate with filter at a 45° angle over a container. […] The membrane was then allowed to dry and the number of cells that migrated through the filter pores was determined by counting the number in a field under a light microscope.

[3] = tested on: human aortic endothelial cells; test: In vitro cell proliferation assay (CyQuant); format: cell-based; settings: for proliferation of human aortic endothelial cells: compared to controls, 48 hours, two different concentrations
Method: The capacity of IGD-motif peptides according to the present invention to promote […] of human aortic endothelial cells was evaluated by conducting in vitro cell proliferation assays for the peptide of SEQ ID NOS 1 and 2, the DIG scramble peptide, and the capped version of the scramble, GGDIGGG (SEQ ID NO:7). Human aortic endothelial cells grown to ˜95% confluency were seeded (5000 cells/well) in growth medium for four hours to allow cells to adhere. The cells were then transferred to the starvation medium described in Example 1 and starved for about 18 hours. The cells were then transferred to starvation medium containing the test peptide, and the cells were allowed to proliferate for an additional 48 hours. The medium was then removed and the wells were washed with PBS. The cells were then subjected to a single freeze-thaw cycle. CyQuant reagent (Molecular Probes, Eugene, Oreg.) was then added to the cells according to the manufacturer's instructions and the cells incubated for 5 minutes in the dark. The intensity of the color—which is directly proportional to the number of cells—is read at an excitation wavelength of 485 nm and the emission wavelength set at 535 nm.

[4] = tested on: quail chorioallantoic membrane (CAM); test: Quail chorioallantoic membrane (CAM) angiogenesis assay; format: in vivo, Japanese quail (cotumix cotumix japonica); settings: for angiogenesis / increase in blood vessels in quail CAM: 24 hours incubation, compared to controls / scramble peptides
Method: The activity of IGD-motif peptides for inducing migration and proliferation in endothelial or smooth muscle cells in an in vitro quail chorioallantoic membrane (CAM) model was assayed in a similar manner to that described by Parsons-Wingerter et al., Microvascular Research 55:201-214 (1998), the disclosure of which is hereby incorporated herein by reference. Briefly, fertilized Japanese quail eggs (cotumix cotumix japonica) were opened onto petri dishes on day 3 post-incubation. After 7 days of culture, the four IGD-motif peptides tested in Examples 1 and 2 (IGD, GGIGD (residues 1-5 of SEQ ID NO:2), DIG, GGDIGGG (SEQ ID NO: 7)) each dissolved in 1% polyvinyl pyrrolidine prewarmed to 37° C., were distributed evenly onto the surface of a CAM in separate petri dishes. After 24 hours of incubation, the CAM's were fixed, dissected and photographed at 10× magnification to visualize the arterial vascular tree, including endstage vessels. Digital images of triplicate CAM specimens were acquired at 10× magnification in grayscale, binarized to black-and-white, and skeletonized. The vessel branching pattern was analyzed and quantified by the fractal dimension.

dermal fibroblasts = settings: cited from earlier work
rat wound healing model = settings: under certain conditions; cited from earlier work

Substance: GGDIGGG (not fully specified) [reference compound]
- migration of human aortic endothelial cells [1]: Neither the DIG scramble nor the capped GGDIGGG scramble (SEQ ID NO:7) showed cell migration significantly greater than controls
- cell migration of human smooth muscle cells [2]: Neither the DIG scramble nor the capped GGDIGGG scramble (SEQ ID NO:7) showed cell migration significantly greater than controls
- proliferation of human aortic endothelial cells [3]: Neither the DIG scramble nor the capped GGDIGGG scramble (SEQ ID NO:7), in contrast, showed cell migration significantly greater than controls
- angiogenesis / increase in blood vessels in quail CAM [4]: neither the DIG scramble nor the GGDIGGG (SEQ ID NO:7) capped scramble promoted angiogenesis significantly better than controls

Substance: GGIGDGG (not fully specified) [Gly-Gly-Ile-Gly-Asp-Gly-Gly]
- migration of human aortic endothelial cells compared to the uncapped peptide ([1]; at a 10-fold lower concentration, FIG. 1A): better migration compared to the uncapped peptide
- migration of human aortic endothelial cells [1]: increased migratory response
- migration of human aortic endothelial cells ([1]; listed as SEQ ID NO. 2): promoted cell migration
- cell migration of human smooth muscle cells [2]: promoted cell migration
- proliferation response relative to the uncapped tripeptide ([3]; FIG. 2): nearly twice that of the uncapped tripeptide
- proliferation of human aortic endothelial cells [3]: promoted cell proliferation
- angiogenesis / increase in blood vessels in quail CAM [4]: promoted angiogenesis
- angiogenesis / increase in blood vessels in quail CAM ([4]; listed as capped peptide): increase in blood vessels
- blood vessel increase in quail CAM compared to the uncapped peptide ([4]; at equivalent concentrations, FIG. 3A): better than the uncapped peptide

Substance: Ile-Gly-Asp (IGD; Cell-attachment-promoting peptide)
- optimal concentration for migration of human aortic endothelial cells ([1]; FIG. 1A): 100 μm
- migration of human aortic endothelial cells [1]: increased migratory response
- migration of human aortic endothelial cells ([1]; listed as IGD tripeptide): dose dependent effect
- migration of human aortic endothelial cells ([1]; listed as SEQ ID NO. 1): promoted cell migration
- cell migration of human smooth muscle cells [2]: promoted cell migration
- proliferation of human aortic endothelial cells [3]: promoted cell proliferation
- angiogenesis / increase in blood vessels in quail CAM [4]: promoted angiogenesis
- angiogenesis / increase in blood vessels in quail CAM ([4]; listed as uncapped peptide): increase in blood vessels
- cell migration of dermal fibroblasts (dermal fibroblasts): can induce cell migration

Substance: Ile-Gly-Asp-Ser (IGDS; Cell-attachment-promoting peptide)
- fibroblast migration (rat wound healing model): increase
- vessel number (rat wound healing model): increase
